Data from patent US20260234188A1, “CHEMOKINE-BINDING PEPTIDES” (Oxford University Innovation Limited, priority 2022, published 2026).
“Also recorded” adds a separate entry of the source. Ends that are not written are not given here.

Key:
CCL8 = target: T1, CCL8 (Homo sapiens, UniProt P80075); assay: cell-based; conditions: for inhibition of cell migration: peptide 10 μM, chemokine at EC80, versus scrambled control HD2SCR
T1 construct: purchased Peprotech
T1 sequence (P80075 24-99): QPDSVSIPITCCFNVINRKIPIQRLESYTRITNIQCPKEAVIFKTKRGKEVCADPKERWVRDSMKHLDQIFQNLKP
Protocol: (§1) FIG. 2. […] BK1.2 is described in (Darlot, 2020). […] Chemokines used are indicated by the name, followed in parenthesis by the supplier code (P in supplier code indicates Peprotech). […] All experiments were performed at EC80 doses of indicated chemokine. Data are shown as box-whisker plots of three technical and three biological replicates. Statistically significant differences (compared to control, indicated by #), using Dunnett's test with correction for multiple comparisons, are indicated by asterisks: ****=P≤0.0001, ***=P≤0.001, **=P≤0.01, *=P≤0.05.
FIG. 3. […] Chemokines used are indicated by the name, followed in parenthesis by the supplier code (P in supplier code indicates Peprotech). […] All experiments were performed at EC80 doses of indicated chemokine.
(§2) Briefly, cell migration assays use THP1 cells (human monocyte) and primary human buffy coat white cells (consisting of neutrophil granulocytes, monocytes, and lymphocytes), and activated T-cells. THP1 cells and primary monocytes respond to CCL2, CCL3, CCL5, CCL8 and CXCL4, granulocytes to CXCL1 and CXCL8, activated T-cells to CXCL9/10/11. Assays are performed in 96-well Boyden chambers, and migrated cells counted and characterized using and ATTUNE Flow Cytometer as described. Triplicate assays are performed at the EC80 dose of each chemokine at 10 μM peptide concentration.
The J:CXCR1 cell line was generated by transfecting Jurkat cells by electroporation with PvuI-linearized plasmid D1398 and selecting with blasticidin (Sigma-Aldrich, Cat #203350, […]). […] J:CXCR1 cells were cultured in RPMI-1640 media (Gibco), supplemented with 10% FBS and 5 mM L-Glutamine with blasticidin. For J:CXCR1 migration assays, 300,000 cells/well were added to the top chamber of a 3 μm Transwell insert (Corning) in 50 μL of migration media (RPMI-1640, 0.5% FBS, 4 mM L-Glutamine, 0.05% DMSO). The bottom chamber contained 150 μL of chemokine, with or without peptide. Cells were migrated at 37° C. in 5% CO2 for 4 hours. […]

[1] = test system: panel of up to 42 human chemokines; assay: Phage-display next generation sequencing screen of overlapping hexadecapeptide libraries, chemokines displayed on streptavidin beads; format: binding; conditions: log2E greater than 5, chemokines named by first part of UniProt Entry Name, peptides binding complement C5a (control) excluded;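 also: chemokine listed when log2 fold enrichment exceeds 5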
Method in brief: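 Phage-display libraries of 55662 overlapping hexadecapeptides from tick and viral chemokine-binding proteins, human chemokines and chemokine receptors screened against up to 42 human chemokines, with hits found by next-generation sequencing. Peptides mapped to parent-protein position with log2 fold enrichment; regions of interest where cumulative residue log2 E exceeds the 95% upper CI of the protein median.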

[2] = test system: panel of 24 biotinylated chemokines; assay: Phage-display screen of HD2 NNK saturation mutagenesis library; format: binding, human; conditions: for Chemokines Bound log2E 1-5 / Chemokines Bound log2E > 5: HD2 saturation mutants, chemokines on streptavidin beads, UniProt entry names
Source text: (§3) FIG. 7. Exemplar results from phage display screens using saturation mutagenesis. A phage-display library was constructed using the HD2 sequence, replacing each residue encoding codon with the degenerate sequence NNK. The 16 degenerate sequences (which also encoded the parental HD2 sequence) were pooled and cloned into display phage. […] Exemplar peptides were selected such that log 2 E for at least one chemokine was greater than 5, and log 2 E for binding to control (CO5, was less than zero). […] The fold enrichment of parental HD2 is also indicated.
as §3, with “A” for “FIG. 7. Exemplar results from phage display screens using saturation mutagenesis. A”
A molecular level understanding of binding mechanism is needed for development of peptides as therapeutics and is usually obtained from structural analyses. As HD2 binds many chemokines this becomes a challenging task, and we explored if we could elucidate this using phage display mutagenesis. The role of each residue in HD2 for binding was examined in phage-display. A library of HD2 mutations that had NNK substituted at each residue and performed phage-display selection against a panel of 24 biotinylated chemokines, in parallel, as described in Example 7. This strategy allowed us to evaluate the impact not only of Ala substitutions, but also conservative, hydrophilic and hydrophobic substitutions, and compare with binding of parental HD2 which is also included in the library. Ala substitution removes side-chains beyond the β-carbon and can be used to infer the role of side-chain functional groups without affecting conformational flexibility of the backbone. […] These residues are within the two motifs identified previously. Other notable residues identified were Y8 and P10. We next judged the impact of Ala mutation by calculating the change in log 2 E (Δlog 2 E) between the mutant and parental HD2. A positive value of Δlog 2 E indicates increased binding, and a negative value decreased binding compared to parental HD2. […] As may be seen, the log 2 E for the parental HD2 was ~0 in these analyses indicating lack of enrichment.
Oligonucleotide pools were amplified using primers: oligo_fwd: 5′-[…] and oligo_rev2: 5′-tcgtcaccctcggcgcctcctcoggatcctccacc. Oligonucleotide PCR products were cloned into plasmid prSTOP4Nsi using NEB Builder HiFi Assembly following instructions of the manufacturer. The vector pool was used to transform electrocompetent Invitrogen ElectroMAX™ DH5α-E™ cells. Plasmid DNA was harvested by MaxiPrep (GeneJet Plasmid Maxiprep Kit) and was transformed into SS320 phage display electrocompetent cells (Lucigen), following the manufacturer's protocol, resuspended in 950 μL recovery media for each electroporation, transferred to 50 mL Falcon tubes, 100 μL 1011 CFU/mL M13KO7 helper phage (NEB) added and shaken at 37° C., 220 RPM for 1 h. 1 mL recovery culture was added to 2YT medium containing +50 ug/mL carbenicillin and 25 ug/mL kanamycin, and grown overnight at 37C, 220 rpm. Phage was precipitated from the culture supernatant by adding 22.5 mL of supernatant to 4.5 mL 20% PEG 8000/2.5 M NaCl, incubating on ice for 30 min, and centrifuging at 10,000 RPM, 4° C. for 10 min, and resuspending phage in 1 ml of PBT, followed by centrifugation at 13000 RPM, 4° C., for 10 min. […]

CC and CXC chemokines = assay: Chemokine-induced cell migration assays, pooled over chemokines (meta-analysis); format: cell-based, human; conditions: single HD2 mutations; nine CC and six CXC chemokines
Protocol: FIG. 16. Effect of HD2 alanine mutations on chemotaxis. […] All experiments were performed as three technical and three biological replicates, and individual data points are indicated, and coloured by the chemokine used. Statistically significant differences (compared to control, coloured blue), using Dunnett's test with correction for multiple comparisons, are indicated by asterisks: ****=P≤0.0001, ***=P≤0.001, **=P≤0.01, *=P≤[…] observations per group (three technical and three biological replicates for each chemokine). FIG. 16B, Faceted plots of change in median normalised cell count between alanine mutant and wild-type HD2 peptide obtained in cell migration assays (Y-axis, Δmedian normalised cell count) versus alanine mutated residue (X-axis). Chemokines used for each experiment are indicated in the strip to the right of each plot. Statistically significant differences compared to parental HD2 are shown as red dots. […] Scatterplot of Δmedian normalised cell count (Y-axis, obtained in cell migration assays) versus Δlog 2 E (obtained in phage-display experiments) for peptide:chemokine pairs. Individual data points indicate peptide chemokine pairs for which both cell migration and Δlog 2 E were available. Linear regression plot with 95% confidence interval, Spearman correlation coefficient (R) and statistical significance (p) are shown.
FIG. 19. […] All experiments were performed as at least three technical and three biological replicates, and individual data points are indicated, and coloured by the chemokine used, for all chemokines studied (n=16 chemokines). Statistically significant differences (compared to control, coloured blue), using Dunnett's test with correction for multiple comparisons, are indicated by asterisks: ****=P≤0.0001, ***=P≤0.001, **=P≤0.01, *=P≤0.05.
as §2
The J:CXCR1 cell line was generated by transfecting Jurkat cells by electroporation with PvuI-linearized plasmid D1398 and selecting with blasticidin (Sigma-Aldrich, Cat #203350, […]). […] J:CXCR1 cells were cultured in RPMI-1640 media (Gibco), supplemented with 10% FBS and 5 mM L-Glutamine with blasticidin. For J:CXCR1 migration assays, 300,000 cells/well were added to the top chamber of a 3 μm Transwell insert (Corning) in 50 μL of migration media (RPMI-1640, 0.5% FBS, 4 mM L-Glutamine, 0.05% DMSO). The bottom chamber contained 150 μL of chemokine, with or without peptide. Cells were migrated at 37° C. in 5% CO2 for 4 hours. The plate was incubated on a shaking platform for 10 minutes, 800 rpm, at 37° C., and 150 μL from the bottom of the plate transferred into a U-bottom plate containing 50 μL of migration media.

CCL21 = target: T2, CCL21 (Homo sapiens, UniProt O00585); assay: CCL21-induced cell migration assay; format: cell-based; conditions: HD2 mutant peptides 10 μM, chemokine at EC80
T2 sequence (O00585 24-134): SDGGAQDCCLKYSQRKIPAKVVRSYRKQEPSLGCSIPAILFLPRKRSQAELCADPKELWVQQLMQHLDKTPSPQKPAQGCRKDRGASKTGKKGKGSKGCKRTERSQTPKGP
Protocol: FIGS. 24 and 25. Effect of exemplar mutant HD2 peptides on chemotaxis. Box-whisker plots showing the effect of the exemplar mutant HD2 peptides on cell migration induced by indicated human chemokines. All experiments were performed as at least three technical and between one to three biological replicates, and individual data points are indicated. […] Chemokine and cell type names are indicated. HD2SCR is a scrambled version of HD2 used as negative control. All peptides were at 10 μM final concentration and chemokines at EC80 doses. Statistically significant differences (compared to control, coloured blue), using Dunnett's test with correction for multiple comparisons, are indicated by asterisks: ****=P≤0.0001, ***=P≤0.001, **=P≤0.01, *=P≤0.05.
(§4) The J:CXCR1 cell line was generated by transfecting Jurkat cells by electroporation with PvuI-linearized plasmid D1398 and selecting with blasticidin (Sigma-Aldrich, Cat #203350, […]). […] J:CXCR1 cells were cultured in RPMI-1640 media (Gibco), supplemented with 10% FBS and 5 mM L-Glutamine with blasticidin. For J:CXCR1 migration assays, 300,000 cells/well were added to the top chamber of a 3 μm Transwell insert (Corning) in 50 μL of migration media (RPMI-1640, 0.5% FBS, 4 mM L-Glutamine, 0.05% DMSO). The bottom chamber contained 150 μL of chemokine, with or without peptide. Cells were migrated at 37° C. in 5% CO2 for 4 hours. The plate was incubated on a shaking platform for 10 minutes, 800 rpm, at 37° C., and 150 μL from the bottom of the plate transferred into a U-bottom plate containing 50 μL of migration media. Cell counts were determined by Attune NxT Flow Cytometer Plate Reader (ThermoFisher), based on cell size parameters FSC-H/SSC-H. Experiments were performed in 3 technical and 3 biological replicates. THP-1 migration assays were carried out using methods known in the art. Activated T-cell assays were carried out using methods known in the art, with the following modifications in the isolation process. Peripheral blood cells were obtained from leucocyte cones (NHS Blood Transfusion Services), following which, T-cells were isolated using two rounds of human CD8+ T-cell isolation kit (480011, BioLegend). At day 10 after activation, T-cells were frozen at 20 E6 cells/ml in TexMACS medium supplemented with 10% DMSO (D2650, Sigma) in liquid nitrogen. Prior to use, activated T-cells were recovered for 24 hours in TexMACs medium at 0.3 E6 cells/ml and incubated at 37° C. in 5% CO2. Chemokine sources are described in Supplementary information Table 3. Statistical significances between control experimental groups was evaluated using Dunnett's test. IC50 experiments were performed at the EC80 dose of chemokine. EC80 was calculated by fitting a chemokine dose-response curve with 3 parameters (fixing the top to 100%). IC50 was calculated by fitting an inhibitor response curve with 4 parameters.
(§5) Migration assays using THP1, activated T-cell (ATC) and J:CXCR1 (Jurkat cells stably transfected with CXCR1 receptor) were performed as described previously. IC50 experiments were performed at the EC80 dose of chemokine. EC80 was calculated by fitting a chemokine dose-response curve with 3 parameters (fixing the top to 100%). IC50 was calculated by fitting an inhibitor response curve with 4 parameters. R-packages used were ggupset_0.3.0, DescTools_0.99.44, and drc_3.0-1.

CXCL9 = target: T3, CXCL9 (Homo sapiens, UniProt Q07325); assay: CXCL9-induced activated T-cell migration, transwell assay; format: cell-based; conditions: HD2 mutant peptides 10 μM, chemokine at EC80
T3 construct: purchased Peprotech
T3 sequence (Q07325 23-125): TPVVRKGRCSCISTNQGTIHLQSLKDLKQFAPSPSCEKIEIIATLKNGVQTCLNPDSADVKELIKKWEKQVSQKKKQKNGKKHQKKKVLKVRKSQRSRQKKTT
Protocol: as §1, §2, §4

CXCL6 = target: T4, CXCL6 (Homo sapiens, UniProt P80162); assay: cell-based; conditions: value in parentheses restating the molar figure
T4 sequence (P80162 38-114): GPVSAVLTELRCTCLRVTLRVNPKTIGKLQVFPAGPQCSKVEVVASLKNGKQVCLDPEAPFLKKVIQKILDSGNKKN
Protocol: FIG. 11. […] Technical replicates are shown as individual data points. […] The response curve (solid blue line) and its 95% confidence interval (grey ribbon) were calculated using a 4-parameter log-logistic plot.
as §4, §5

Row | Substance | inhibition of cell migration (CCL8) | Chemokines Bound [1] | Chemokines Bound log2E 1-5 [2] | Chemokines Bound log2E > 5 [2] | mean log 2 E compared to parental HD2 ([2]; over CC chemokines) | mean log 2 E compared to parental HD2 ([2]; over all chemokines) | further results
1 | DEDYEDFFKPVTCYFA [HD540] | inhibition | CCL18, CCL22,; also recorded: CCL5, CCL8 |  |  |  |  | 
2 | EDEDYEDFFKPVTCYF [HD845] | inhibition | CCL18, CCL22,; also recorded: CCL5, CCL8 |  |  |  |  | 
3 | EEDDYDAYAPLTCYFT [HD2_D6] |  |  | CCL15, CCL17, CCL18, CCL19,; also recorded: CCL22, CCL28, CCL3, CCL4,; also recorded: CCL5, CCL8, X3CL1, CXL10,; also recorded: CXL11, CXL14, IL8 | CCL1, CCL11,; also recorded: CCL2, SDF1,; also recorded: CXL13 | significant improvement | significant improvement | chemotaxis inhibition compared with HD2, meta-analysis (CC and CXC chemokines): did not improve chemotaxis in any assay
4 | EEDDYTAYAPITCYFT [HD2_I11] |  |  | CCL1, CCL11, CCL17, CCL18,; also recorded: CCL19, CCL2, CCL22, CCL28,; also recorded: CCL3, CCL4, CCL5, CCL8, X3CL1,; also recorded: CXL10, CXL11, SDF1, CXL13, IL8 | CCL15 | significant improvement | significant improvement | chemotaxis compared with the parental HD2 peptide (CCL21): significant reduction in chemotaxis; chemotaxis compared with the parental HD2 peptide (CXCL9): significant reduction in chemotaxis
5 | EEDDYTAYAPLTCYFT-NH2 [HD2, EEDDYTAYAPLTCYFT] |  |  |  |  |  |  | IC50 (CCL8; value in parentheses restating the molar figure): 0.015 µM; IC50 (CXCL6): 140 µM
